From patent US20230138393A1, “LINKING AMINO ACID SEQUENCES, MANUFACTURING METHOD THEREOF, AND USE THEREOF” (priority 2020, published 2023)

What was measured:
DLD-1 cells [1] = experiment: Cell penetration assay of FITC-labelled Axin analogues (confocal imaging); type: cell-based; conditions: 10 μM
Protocol: Images were analyzed with NIH ImageJ software.
Cell Penetration Assay: DLD-1 cells were seeded on 35 mm optical dishes at 3e5 per well and were incubated overnight at 37° C./5% CO2. […] Cells were imaged in buffer mimicking the physiological conditions in the cytoplasm (20 mM HEPES, 110 mM KOAc, 5 mM NaOAc, 2 mM MgOAc, 1 mM EGTA, pH 7.3).

DLD-1 cells [2] = conditions: literature; cited from earlier work

In the case of `CC[C@H](C)[C@@H]1NC(=O)[C@@](C)(NC(=O)[C@H](CCC(N)=O)NC(=O)[C@@H]2CCCN2C(=O)[C@H](Cc2c[nH]c3ccccc23)NC(=O)[C@H](CCCNC(=N)N)NC(=O)COCCOCCNC(=S)Nc2ccc3c(c2)C(=O)OC32c3ccc(O)cc3Oc3cc(O)ccc32)CCCC=CCCC[C@@](C)(C(=O)N[C@@H](Cc2c[nH]cn2)C(=O)N[C@H](C(=O)N[C@@H](CCCNC(=N)N)C(=O)N[C@@H](CCCNC(=N)N)C(=O)N[C@H](C(=O)N[C@@H](Cc2c[nH]c3ccccc23)C(=O)N[C@@H](CCCNC(=N)N)C(N)=O)C(C)C)C(C)C)NC(=O)[C@H](CC(=O)O)NC(=O)[C@H](CC(C)C)NC1=O` [Peptide 51, reference compound], the “cellular uptake by confocal fluorescence microscopy (in words)” value (DLD-1 cells [1]) is listed as “much weaker fluorescence” and the “reported cell permeability to DLD-1 cells” value (DLD-1 cells [2]) is listed as “limited cell permeability”.
